≈ marks a conversion by molar mass, not a printed value. Positions of bridges follow the written chain, without caps; N, C: chain ends. Non-standard residues stand in square brackets, D forms with d. Residues, ends and D or L forms follow the SMILES beside them. dNMeF = CN[C@H](Cc1ccccc1)C(=O)O
What was measured:
[1] = tested on: Staphylococcus epidermidis; assay: Antibacterial activity against Staphylococcus epidermidis 12228 after 24 hrs; assay type: functional; settings: Staphylococcus epidermidis, 12228, 24 h
[2] = tested on: Staphylococcus saprophyticus; assay: Antibacterial activity against Staphylococcus saprophyticus ATCC 49907 after 24 hrs; assay type: functional; settings: ATCC 49907, 24 h
Bacillus cereus = assay: Antibacterial activity against Bacillus cereus ATCC 11788 after 24 hrs; assay type: functional; settings: ATCC 11788, 24 h
Enterococcus faecalis [3] = assay: Antibacterial activity against vancomycin-resistant Enterococcus faecalis isolate 1008 after 24 hrs; assay type: functional; settings: isolate 1008, 24 h
Enterococcus faecalis [4] = assay: Antibacterial activity against vancomycin-resistant Enterococcus faecalis isolate 1004 after 24 hrs; assay type: functional; settings: isolate 1004, 24 h
[5] = tested on: Staphylococcus saprophyticus; assay: Antibacterial activity against Staphylococcus saprophyticus ATCC 15305 after 24 hrs; assay type: functional; settings: ATCC 15305, 24 h
Enterococcus faecalis [6] = assay: Antibacterial activity against vancomycin-resistant Enterococcus faecalis ATCC 29212 after 24 hrs; assay type: functional; settings: ATCC 29212, 24 h
Enterococcus faecalis [7] = assay: Antibacterial activity against vancomycin-resistant Enterococcus faecalis ATCC 700802 after 24 hrs; assay type: functional; settings: ATCC 700802, 24 h
[8] = tested on: Staphylococcus saprophyticus; assay: Antibacterial activity against Staphylococcus saprophyticus ATCC BAA 750 after 24 hrs; assay type: functional; settings: ATCC BAA 750, 24 h
[9] = tested on: Staphylococcus saprophyticus; assay: Antibacterial activity against Staphylococcus saprophyticus ATCC 49453 after 24 hrs; assay type: functional; settings: ATCC 49453, 24 h
[10] = tested on: Bacillus subtilis (Bacillus subtilis); assay: Antibacterial activity against Bacillus subtilis ATCC 6633 after 24 hrs; settings: ATCC 6633, 24 h
Staphylococcus aureus [11] = assay: Antibacterial activity against Staphylococcus aureus ATCC 29213 after 24 hrs; assay type: functional; settings: ATCC 29213, 24 h
Staphylococcus aureus [12] = assay: Antibacterial activity against methicillin-resistant Staphylococcus aureus ATCC 33591 after 24 hrs; assay type: functional; settings: ATCC 33591, 24 h
Enterococcus faecalis [13] = assay: Antibacterial activity against vancomycin-resistant Enterococcus faecalis isolate 1002 after 24 hrs; assay type: functional; settings: isolate 1002, 24 h
Enterococcus faecalis [14] = assay: Antibacterial activity against vancomycin-resistant Enterococcus faecalis isolate 1001 after 24 hrs; assay type: functional; settings: isolate 1001, 24 h
Staphylococcus aureus [15] = assay: Antibacterial activity against methicillin-resistant Staphylococcus aureus isolate 1003 after 24 hrs; assay type: functional; settings: isolate 1003, 24 h
Staphylococcus aureus [16] = assay: Antibacterial activity against methicillin-resistant Staphylococcus aureus isolate 21455 after 24 hrs; assay type: functional; settings: isolate 21455, 24 h
Staphylococcus aureus [17] = assay: Antibacterial activity against Staphylococcus aureus 4299 after 24 hrs; assay type: functional; settings: Staphylococcus aureus, 4299, 24 h
Staphylococcus aureus [18] = assay: Antibacterial activity against methicillin-resistant Staphylococcus aureus isolate 42412 after 24 hrs; assay type: functional; settings: isolate 42412, 24 h
Staphylococcus aureus [19] = assay: Antibacterial activity against methicillin-resistant Staphylococcus aureus ATCC 700699 after 24 hrs; assay type: functional; settings: ATCC 700699, 24 h

| SMILES | MIC [1] | MIC [2] | MIC (Bacillus cereus) | MIC (Enterococcus faecalis [3]) | MIC (Enterococcus faecalis [4]) | MIC [5] | MIC (Enterococcus faecalis [6]) | MIC (Enterococcus faecalis [7]) | MIC [8] | MIC [9] | MIC [10] | MIC (Staphylococcus aureus [11]) | MIC (Staphylococcus aureus [12]) | MIC (Enterococcus faecalis [13]) | MIC (Enterococcus faecalis [14]) | MIC (Staphylococcus aureus [15]) | MIC (Staphylococcus aureus [16]) | MIC (Staphylococcus aureus [17]) | MIC (Staphylococcus aureus [18]) | MIC (Staphylococcus aureus [19]) |
| --- | --- | --- | --- | --- | --- | --- | --- | --- | --- | --- | --- | --- | --- | --- | --- | --- | --- | --- | --- | --- |
| CC[C@@H](C)[C@@H](NC(=O)[C@@H](CCC(N)=O)NC(=O)[C@H](CCCNC(=N)N)NC(=O)[C@@H](NC(=O)[C@@H](Cc1ccccc1)NC)[C@@H](C)CC)C(=O)N[C@H](C(=O)N[C@@H](CO)C(=O)N[C@H]1C(=O)N[C@@H](CCCNC(=N)N)C(=O)N[C@@H](CC(C)C)C(=O)N[C@@H]([C@@H](C)CC)C(=O)O[C@H]1C)[C@@H](C)CC (H-[dNMeF]IR[dQ][dI]IS[dT]RLI; ester 8-C) | < 0.0625 µg/mL | < 0.0625 µg/mL | 1 µg/mL (≈ 0.738 µM) | 0.5 µg/mL (≈ 0.369 µM) | 0.5 µg/mL (≈ 0.369 µM) | < 0.0625 µg/mL | 1 µg/mL (≈ 0.738 µM) | 1 µg/mL (≈ 0.738 µM) | < 0.0625 µg/mL | < 0.0625 µg/mL | < 0.0625 µg/mL | 1 µg/mL (≈ 0.738 µM) | 1 µg/mL (≈ 0.738 µM) | 1 µg/mL (≈ 0.738 µM) | 0.5 µg/mL (≈ 0.369 µM) | 2 µg/mL (≈ 1.48 µM) | 1 µg/mL (≈ 0.738 µM) | 0.5 µg/mL (≈ 0.369 µM) | 0.25 µg/mL (≈ 0.184 µM) | 1 µg/mL (≈ 0.738 µM) |
| CC[C@@H](C)[C@@H](NC(=O)[C@@H](CCCNC(=N)N)NC(=O)[C@H](CCCNC(=N)N)NC(=O)[C@@H](NC(=O)[C@@H](Cc1ccccc1)NC)[C@@H](C)CC)C(=O)N[C@H](C(=O)N[C@@H](CO)C(=O)N[C@H]1C(=O)N[C@@H](CCCNC(=N)N)C(=O)N[C@@H](CC(C)C)C(=O)N[C@@H]([C@@H](C)CC)C(=O)O[C@H]1C)[C@@H](C)CC (H-[dNMeF]IR[dR][dI]IS[dT]RLI; ester 8-C) | < 0.0625 µg/mL | < 0.0625 µg/mL | 1 µg/mL (≈ 0.723 µM) | 8 µg/mL (≈ 5.78 µM) | 4 µg/mL (≈ 2.89 µM) | 0.25 µg/mL (≈ 0.181 µM) | 4 µg/mL (≈ 2.89 µM) | 4 µg/mL (≈ 2.89 µM) | < 0.0625 µg/mL | < 0.0625 µg/mL | < 0.0625 µg/mL | 1 µg/mL (≈ 0.723 µM) | 1 µg/mL (≈ 0.723 µM) | 8 µg/mL (≈ 5.78 µM) | 2 µg/mL (≈ 1.45 µM) | 2 µg/mL (≈ 1.45 µM) | 2 µg/mL (≈ 1.45 µM) | 1 µg/mL (≈ 0.723 µM) | 2 µg/mL (≈ 1.45 µM) | 2 µg/mL (≈ 1.45 µM) |
| CC[C@@H](C)[C@@H](NC(=O)[C@@H](CCCNC(=N)N)NC(=O)[C@H](CO)NC(=O)[C@@H](NC(=O)[C@@H](Cc1ccccc1)NC)[C@@H](C)CC)C(=O)N[C@H](C(=O)N[C@@H](CO)C(=O)N[C@H]1C(=O)N[C@@H](CCCNC(=N)N)C(=O)N[C@@H](CC(C)C)C(=O)N[C@@H]([C@@H](C)CC)C(=O)O[C@H]1C)[C@@H](C)CC (H-[dNMeF]IS[dR][dI]IS[dT]RLI; ester 8-C) | < 0.0625 µg/mL | < 0.0625 µg/mL | 1 µg/mL (≈ 0.761 µM) | 1 µg/mL (≈ 0.761 µM) | 1 µg/mL (≈ 0.761 µM) | < 0.0625 µg/mL | 1 µg/mL (≈ 0.761 µM) | 1 µg/mL (≈ 0.761 µM) | < 0.0625 µg/mL | < 0.0625 µg/mL | < 0.0625 µg/mL | 1 µg/mL (≈ 0.761 µM) | 1 µg/mL (≈ 0.761 µM) | 1 µg/mL (≈ 0.761 µM) | 1 µg/mL (≈ 0.761 µM) | 0.5 µg/mL (≈ 0.38 µM) | 1 µg/mL (≈ 0.761 µM) | 0.5 µg/mL (≈ 0.38 µM) | 1 µg/mL (≈ 0.761 µM) | 1 µg/mL (≈ 0.761 µM) |
| CC[C@@H](C)[C@@H](NC(=O)[C@@H](CCCNC(=N)N)NC(=O)[C@H](CO)NC(=O)[C@@H](NC(=O)[C@@H](Cc1ccccc1)NC)[C@@H](C)CC)C(=O)N[C@H](C(=O)N[C@@H](CO)C(=O)N[C@H]1C(=O)N[C@@H](C)C(=O)N[C@@H]([C@@H](C)CC)C(=O)N[C@@H]([C@@H](C)CC)C(=O)O[C@H]1C)[C@@H](C)CC | < 0.0625 µg/mL | < 0.0625 µg/mL | < 0.0625 µg/mL | 0.5 µg/mL (≈ 0.407 µM) | 0.5 µg/mL (≈ 0.407 µM) | < 0.0625 µg/mL | 0.25 µg/mL (≈ 0.203 µM) | 0.25 µg/mL (≈ 0.203 µM) | < 0.0625 µg/mL | < 0.0625 µg/mL | < 0.0625 µg/mL | 0.0625 µg/mL (≈ 0.0508 µM) | 0.125 µg/mL (≈ 0.102 µM) | 1 µg/mL (≈ 0.813 µM) | 0.5 µg/mL (≈ 0.407 µM) | < 0.0625 µg/mL | 0.0312 µg/mL (≈ 0.0254 µM) | < 0.0625 µg/mL | < 0.0625 µg/mL | 0.25 µg/mL (≈ 0.203 µM) |
| CC[C@@H](C)[C@@H](NC(=O)[C@@H](CCCNC(=N)N)NC(=O)[C@H](CCCNC(=N)N)NC(=O)[C@@H](NC(=O)[C@@H](Cc1ccccc1)NC)[C@@H](C)CC)C(=O)N[C@H](C(=O)N[C@@H](CO)C(=O)N[C@H]1C(=O)N[C@@H](C)C(=O)N[C@@H](CC(C)C)C(=O)N[C@@H]([C@@H](C)CC)C(=O)O[C@H]1C)[C@@H](C)CC (H-[dNMeF]IR[dR][dI]IS[dT]ALI; ester 8-C) | < 0.0625 µg/mL | < 0.0625 µg/mL | 1 µg/mL (≈ 0.77 µM) | 0.5 µg/mL (≈ 0.385 µM) | 0.5 µg/mL (≈ 0.385 µM) | < 0.0625 µg/mL | 1 µg/mL (≈ 0.77 µM) | 2 µg/mL (≈ 1.54 µM) | < 0.0625 µg/mL | < 0.0625 µg/mL | < 0.0625 µg/mL | 0.25 µg/mL (≈ 0.193 µM) | 0.25 µg/mL (≈ 0.193 µM) | 1 µg/mL (≈ 0.77 µM) | 1 µg/mL (≈ 0.77 µM) | 1 µg/mL (≈ 0.77 µM) | 0.5 µg/mL (≈ 0.385 µM) | 0.25 µg/mL (≈ 0.193 µM) | 0.25 µg/mL (≈ 0.193 µM) | 0.5 µg/mL (≈ 0.385 µM) |
| CC[C@@H](C)[C@@H](NC(=O)[C@@H](CCC(N)=O)NC(=O)[C@H](CO)NC(=O)[C@@H](NC(=O)[C@@H](Cc1ccccc1)NC)[C@@H](C)CC)C(=O)N[C@H](C(=O)N[C@@H](CO)C(=O)N[C@H]1C(=O)N[C@@H](CCCNC(=N)N)C(=O)N[C@@H](CC(C)C)C(=O)N[C@@H]([C@@H](C)CC)C(=O)O[C@H]1C)[C@@H](C)CC (H-[dNMeF]IS[dQ][dI]IS[dT]RLI; ester 8-C) | < 0.0625 µg/mL | < 0.0625 µg/mL | 0.25 µg/mL (≈ 0.194 µM) | 0.25 µg/mL (≈ 0.194 µM) | 0.25 µg/mL (≈ 0.194 µM) | < 0.0625 µg/mL | 1 µg/mL (≈ 0.777 µM) | 0.5 µg/mL (≈ 0.389 µM) | < 0.0625 µg/mL | < 0.0625 µg/mL | < 0.0625 µg/mL | 0.5 µg/mL (≈ 0.389 µM) | 0.125 µg/mL (≈ 0.0972 µM) | 1 µg/mL (≈ 0.777 µM) | 0.5 µg/mL (≈ 0.389 µM) | 0.25 µg/mL (≈ 0.194 µM) | 0.25 µg/mL (≈ 0.194 µM) | 0.25 µg/mL (≈ 0.194 µM) | < 0.0625 µg/mL | 0.5 µg/mL (≈ 0.389 µM) |

From ChEMBL document CHEMBL4020828, “Design and Syntheses of Highly Potent Teixobactin Analogues against Staphylococcus aureus, Methicillin-Resistant Staphylococcus aureus (MRSA), and Vancomycin-Resistant Enterococci (VRE) in Vitro and in Vivo” (J Med Chem, 2018)
